Laboratory results reported in patent publication US20200115412A1, “SEPARATION OF VANCOMYCIN AND ITS DEGRADATION PRODUCTS” (SAVARA INC., priority 2018, published 2020).
Structures can show the parent of a compound that is named as a salt. Where two headings read alike, the source gives them in different places.

Experiments:
[1] = Impurities in AeroVanc vancomycin powder stored for three months at 5° C. and 25° C., improved HPLC impurity method; assay type: physicochemical
Protocol: Calculate the concentration of each individual impurity in samples 1A, 2A and 3A, as follows:
Where: • I %i=Impurity concentration in sample 1A, 2A or 3A (as percentage) • 10=Dilution factor (50 mL/5.0 mL) • CV=Vancomycin concentration in sample solutions 1B, 2B or 3B (μg/mL) • Ci=Concentration of impurity in sample solution 1A, 2A or 3A (μg/mL) • Ci,total=Total concentration of impurities in sample solutions 1A, 2A or 3A
The method disclosed herein was also applied to the determination of degradation products of AeroVanc vancomycin powder stored for three months at 5° C. and 25° C.

[2] = Stated stability and handling properties; assay type: physicochemical; conditions: reference standards handling
Text: Vancomycin is a potent antibiotic reserved for serious drug-resistant bacterial infections including intravenous infusion for complicated infection (including MRSA) and oral administration for severe gastro-intestinal (GI) infections caused by Clostridium difficile. It was first isolated from soil bacterium (Amycolatopis orientalis) by Kornfeld in 1953, and first commercialized by Eli Lilly in 1954. Vancomycin, which is listed on the WHO's List of Essential Medicines, is a complex glycopeptide derived from N. orientalis with significant analytical challenges, including the presence of at least 12 identified impurities and a greater number of unknown impurities. […] Vancomycin has six ionizable groups and some of the impurities have seven. It is difficult to handle (high surface energy) and difficult to formulate. AeroVanc is a dry-powder inhalation product (DPI) under development for the treatment of methicillin resistant S. aureus (MRSA) infections in the lungs of cystic fibrosis patients. AeroVanc (vancomycin hydrochloride inhalation powder) contains the antibiotic and a single excipient, L-leucine. AeroVanc comprises a dry powder formulation which is delivered to the lungs by oral inhalation using a unit dose delivery device.

[3] = Impurity profiles of vancomycin degraded in solution and solid state (FIG. 22); assay type: physicochemical
Text: The method disclosed herein was successfully applied to the determination of degradation products of vancomycin in the solution and solid states.

[4] = background statement; cited from earlier work
[5] = AeroVanc vancomycin powder stored three months at 5° C.
[6] = AeroVanc vancomycin powder stored three months at 25° C.

Compound | Impurity (%) [1, 5] | Impurity (%) [1, 6] | further results
CC(C)C[C@@H](N)C(=O)N[C@H]1C(=O)N[C@@H](CC(N)=O)C(=O)N[C@H]2C(=O)N[C@H]3C(=O)N[C@H](C(=O)N[C@H](C(=O)O)c4cc(O)cc(O)c4-c4cc3ccc4O)[C@H](O)c3ccc(c(Cl)c3)Oc3cc2cc(c3O[C@@H]2O[C@H](CO)[C@@H](O)[C@H](O)[C@H]2O[C@H]2C[C@](C)(N)[C@H](O)[C@H](C)O2)Oc2ccc(cc2Cl)[C@H]1O [N-demethyl, N-demethyl-vancomycin (EP Impurity A)] | 1.757% | 1.722% | –
CC(C)C[C@H](C(=O)N[C@H]1C(=O)N[C@@H](CC(N)=O)C(=O)N[C@H]2C(=O)NC3C(=O)N[C@H](C(=O)N[C@H](C(=O)O)c4cc(O)cc(O)c4-c4cc3ccc4O)[C@H](O)c3ccc(c(Cl)c3)Oc3cc2cc(c3O[C@@H]2OC(CO)C(O)C(O)[C@H]2O[C@H]2C[C@](C)(N)[C@H](O)[C@H](C)O2)Oc2ccc(cc2Cl)[C@H]1O)N(C)C (some centres unmarked) [N-methyl, N-methyl-vancomycin] | 0.019% | 0.027% | –
CN[C@H](CC(C)C)C(=O)N[C@H]1C(=O)N[C@@H](CC(N)=O)C(=O)N[C@H]2C(=O)N[C@H]3C(=O)N[C@H](C(=O)N[C@H](C(=O)O)c4cc(O)cc(O)c4-c4cc3ccc4O)[C@H](O)c3ccc(c(Cl)c3)Oc3cc2cc(c3O[C@@H]2O[C@H](CO)[C@@H](O)[C@H](O)[C@H]2O[C@H]2C[C@](C)(N)[C@H](O)[C@H](C)O2)Oc2ccc(cc2Cl)[C@H]1O [Vancomycin HCl, vancomycin hydrochloride] | – | – | light sensitivity and hygroscopicity [2]: light sensitive and hygroscopic
CN[C@H](CC(C)C)C(=O)N[C@H]1C(=O)N[C@@H](CC(N)=O)C(=O)N[C@H]2C(=O)N[C@H]3C(=O)N[C@H](C(=O)N[C@H](C(=O)O)c4cc(O)cc(O)c4-c4cc3ccc4O)[C@H](O)c3ccc(c(Cl)c3)Oc3cc2cc(c3O[C@@H]2O[C@H](CO)[C@@H](O)[C@H](O)[C@H]2O[C@H]2C[C@](C)(N)[C@H](O)[C@H](C)O2)Oc2ccc(cc2Cl)[C@H]1O [Vancomycin] | – | – | impurity profile of degraded vancomycin ([3]; degraded in aqueous solution, compared to the degraded solid): larger amounts of CDP-1 Minor, CPD-1 Major and additional unknowns; impurity profile of degraded vancomycin ([3]; degraded solid, compared to the degraded aqueous solution): increased desamido-succinimide vancomycin and agluco vancomycin; stability at room temperature [4]: unstable at room temperature; net charge (at high pH): −4; net charge (at low pH): +2; net charge (plateau region between pH 3.5 and 5.5): +1
Agluco-vancomycin (EP Impurity C) | 0.139% | 0.163% | –
Cis-chloro-(2)-vancomycin | 0.194% | 0.200% | –
De-((L-asn)-L-gln-vancomycin (EP Impurity B) [De-(L-Asn)-L-Gln] | 0.152% | 0.151% | –
Des-(amido)-aspartyl-vancomycin (CDP-1 minor) [CDP-1minor] | 0.017% | 0.026% | –
Des-(amido)-succinimido- vancomycin [Des-amido-succinimido] | 0.577% | 0.759% | –
Desvancosamino-vancomycin (EP Impurity D) [Des-vancosamino] | 0.343% | 0.398% | –
Epi-(26R)-vancomycin [Epi-26(R)] | 0.610% | 0.628% | –
Monodechloro-(2)-vancomycin | 0.069% | 0.072% | –
Monodechloro-(6)-vancomycin [Mono-dechloro-(6)] | 0.679% | 0.671% | –
